In patent US20240174690A1, “ANNULATED 2-AMINO-3-CYANO THIOPHENES AND DERIVATIVES FOR THE TREATMENT OF CANCER” (BOEHRINGER INGELHEIM INTERNATIONAL GMBH, priority 2021, published 2024):

Tests used:
KRAS (G12C)::SOS1 = KRAS (G12C)::SOS1 (Homo sapiens (Human), UniProt P01116, C118S/C51S/C80L/G12C); assay: KRAS::SOS1 AlphaScreen binding assay, KRAS G12C
How it was run: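 AlphaScreen measurement of compound disruption of biotinylated, GDP-loaded KRAS 1-169 (10 nM; G12C 7.5 nM) binding to GST-SOS1 564-1049 (5 nM with G12D/G12C, 10 nM otherwise), with 10 μM GDP in PBS/0.1% BSA/0.05% Tween 20. Timing was 30 min compound preincubation, then 60 min with beads at room temperature; top concentration 100 μM, 4-parameter IC50.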

[1] = Metabolic (microsomal) stability assay, human liver microsomes (HLM); type: in vitro ADME; conditions: predicted clearance as percent of liver blood flow, 1 μM
How it was run: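 LC-MS/MS tracked parent disappearance at 0, 5, 15, 30 and 60 min in NADPH-initiated incubations with 1 mg/mL human microsomal protein and 1 μM compound at 37°C, pH 7.5. First-order fits gave intrinsic clearance, which was scaled up and reported as % QH. NADPH-free controls were also run.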

Chain of KRAS (G12C)::SOS1 (P01116 other isoform, or with tags, fused parts or gaps G12C/C51S/C80L/C118S): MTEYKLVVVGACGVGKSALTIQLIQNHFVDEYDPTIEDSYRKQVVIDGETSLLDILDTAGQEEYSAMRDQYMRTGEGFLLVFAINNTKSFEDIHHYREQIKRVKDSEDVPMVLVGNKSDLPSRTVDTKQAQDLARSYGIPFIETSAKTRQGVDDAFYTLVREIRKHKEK

## C[C@H](Oc1cc(-c2ccn(C[C@@H](C)O)n2)nc(-c2noc3c2CCC[C@@]32CCCc3sc(N)c(C#N)c32)n1)[C@@H]1CCCN1C [II-117]
KRAS (G12C)::SOS1
  IC50: 1 nM
[1]
  HLM QH: <24%

## C[C@H](Oc1cc(-c2ccccn2)nc(-c2noc3c2CCC[C@@]32CCCc3sc(N)c(C#N)c32)n1)[C@@H]1CCCN1C [II-85]
KRAS (G12C)::SOS1
  IC50: 2 nM
[1]
  HLM QH: 47%

## C[C@H](Oc1cc(-c2ccc(N)nc2)nc(-c2noc3c2CCC[C@@]32CCCc3sc(N)c(C#N)c32)n1)[C@@H]1CCCN1C [II-101]
KRAS (G12C)::SOS1
  IC50: 2 nM
[1]
  HLM QH: 31%

## C[C@H](Oc1cc(-n2cc(-c3cccnc3)nn2)nc(-c2noc3c2CCC[C@@]32CCCc3sc(N)c(C#N)c32)n1)[C@@H]1CCCN1C [II-123]
KRAS (G12C)::SOS1
  IC50: 2 nM
[1]
  HLM QH: 28%

## C[C@H](Oc1cc(-c2cn[nH]c2)nc(-c2noc3c2CCC[C@@]32CCCc3sc(N)c(C#N)c32)n1)[C@@H]1CCCN1C [II-87]
KRAS (G12C)::SOS1
  IC50: 3 nM
[1]
  HLM QH: <24%

## C[C@H](Oc1cc(C2=CCOCC2)nc(-c2noc3c2CCC[C@@]32CCCc3sc(N)c(C#N)c32)n1)[C@@H]1CCCN1C [II-67]
KRAS (G12C)::SOS1
  IC50: 2 nM
[1]
  HLM QH: <24%

## C[C@H](Oc1cc(N2CCC[C@@H](O)C2)nc(-c2noc3c2CCC[C@@]32CCCc3sc(N)c(C#N)c32)n1)[C@@H]1CCCN1C [II-59]
KRAS (G12C)::SOS1
  IC50: 2 nM
[1]
  HLM QH: <24%

## C[C@H](Oc1cc(N2C[C@H](C)N[C@@H](C)C2)nc(-c2onc3c2CCC[C@@]32CCCc3sc(N)c(C#N)c32)n1)[C@@H]1CCCN1C [I-6]
KRAS (G12C)::SOS1
  IC50: 5 nM
[1]
  HLM QH: <24%

## C[C@H](Oc1cc(-c2cccc(CO)c2)nc(-c2noc3c2CCC[C@@]32CCCc3sc(N)c(C#N)c32)n1)[C@@H]1CCCN1C [II-97]
KRAS (G12C)::SOS1
  IC50: 3 nM
[1]
  HLM QH: <24%

## C[C@H](Oc1cc(N2CC[C@H](N(C)C)C2)nc(-c2onc3c2CCC[C@@]32CCCc3sc(N)c(C#N)c32)n1)[C@@H]1CCCN1C [I-11]
KRAS (G12C)::SOS1
  IC50: 7 nM
[1]
  HLM QH: <24%

## CO[C@@H]1C[C@@H]([C@H](C)Oc2cc(-n3ccnc3)nc(-c3noc4c3CCC[C@@]43CCCc4sc(N)c(C#N)c43)n2)N(C)C1 [II-58]
KRAS (G12C)::SOS1
  IC50: 2 nM
[1]
  HLM QH: 46%

## C[C@H](Oc1cc(-c2cnn(C)n2)nc(-c2noc3c2CCC[C@@]32CCCc3sc(N)c(C#N)c32)n1)[C@@H]1CCCN1C [II-86]
KRAS (G12C)::SOS1
  IC50: 2 nM
[1]
  HLM QH: 35%

## C[C@H](Oc1cc(C2CCOCC2)nc(-c2noc3c2CCC[C@@]32CCCc3sc(N)c(C#N)c32)n1)[C@@H]1CCCN1C [II-76]
KRAS (G12C)::SOS1
  IC50: 2 nM
[1]
  HLM QH: 31%

## C[C@H](Oc1cc(-c2cncnc2)nc(-c2noc3c2CCC[C@@]32CCCc3sc(N)c(C#N)c32)n1)[C@@H]1CCCN1C [II-82]
KRAS (G12C)::SOS1
  IC50: 3 nM
[1]
  HLM QH: <24%

## Cc1nccn1-c1cc(O[C@@H](C)[C@@H]2CCCN2C)nc(-c2noc3c2CCC[C@@]32CCCc3sc(N)c(C#N)c32)n1 [II-79]
KRAS (G12C)::SOS1
  IC50: 2 nM
[1]
  HLM QH: 45%

## C[C@H](Oc1cc(N2CCOC3(COC3)C2)nc(-c2noc3c2CCC[C@@]32CCCc3sc(N)c(C#N)c32)n1)[C@@H]1CCCN1C [II-77]
KRAS (G12C)::SOS1
  IC50: 2 nM
[1]
  HLM QH: 34%

## C[C@H](Oc1cc(N2C[C@H](C)N[C@@H](C)C2)nc(-c2noc3c2CCC[C@@]32CCCc3sc(N)c(C#N)c32)n1)[C@@H]1CCCN1C [II-56]
KRAS (G12C)::SOS1
  IC50: 2 nM
[1]
  HLM QH: <24%

## COC(=O)c1ccc(-c2cc(O[C@@H](C)[C@@H]3CCCN3C)nc(-c3noc4c3CCC[C@@]43CCCc4sc(N)c(C#N)c43)n2)o1 [II-114]
KRAS (G12C)::SOS1
  IC50: 2 nM
[1]
  HLM QH: 34%

## C[C@H](Oc1cc(-n2ccc(Br)n2)nc(-c2noc3c2CCC[C@@]32CCCc3sc(N)c(C#N)c32)n1)[C@@H]1CCCN1C [II-110]
KRAS (G12C)::SOS1
  IC50: 2 nM
[1]
  HLM QH: 47%
